{"source": "paper PMC4830539", "about": "“Chemical Inhibition of Histone Deacetylases 1 and 2 Induces Fetal Hemoglobin through Activation of GATA2” (PLoS ONE, 2016)", "key": {"[1]": {"system": "GATA2 binding at the HBD promoter", "test": "GATA2 ChIP-QPCR at the HBD promoter", "assay_type": "cell-based, human", "conditions": "1 μM", "description": "Cells were fixed in 1% formaldehyde for 15 minutes at room temperature. Crosslinking reaction was extinguished by adding glycine to 125 mM. Cells were washed three times in PBS, 0.5% lgepal CA-630, 1 mM phenylmethanesulfonyl fluoride (PMSF). Cell pellets were snap frozen on dry ice and stored at -80°C.\nFor ChIP-QPCR experiments, chromatin (11 μg) from vehicle (n = 1) or ACY-957 (n = 1) treated cells was fragmented by sonication, then immunoprecipitated (n = 3, each) using antibodies against histone H3 lysine 9 acetylation (3 μg, ab10812, Abcam), histone H2B lysine 5 acetylation (6 μL, ab40886, Abcam), histone H3 lysine 27 acetylation (3 μg, ab4729, Abcam), or GATA2 (6 μg, SC-9008, Santa Cruz). Specific genomic regions within immunoprecipitated and input DNA was detected using SYBR green QPCR with the following primer pairs:\nGATA2 could affect HBG indirectly, through altering the expression of other factors which, in turn, act directly at the β-like globin gene cluster. […] To investigate this possibility, we looked at the β-like globin gene cluster in the GATA2 ChIP-Seq data presented above. Six statistically significant GATA2 binding peaks were identified in vehicle treated cells across the 70 kb region (Fig 9A); corresponding to four locus control region (LCR) hypersensitivity sites, a region in the HBB gene, and a region near the HBD gene promoter. […]"}, "[2]": {"system": "HbF protein", "test": "HbF protein by flow cytometry in BM cells (CS1, CS2)", "assay_type": "cell-based, human", "conditions": "for HbF positive cells / MFI of HbF positive cells: 1 μM ACY-957 or 30 μM hydroxyurea", "description": "CD34+ cells isolated from human bone marrow of healthy normal donors (Lonza, AllCells, or StemCell Technologies), referred to as BM cells throughout this work, were cultured using two distinct 2-phase culture systems. These systems have been described previously and are referred to as Culture System 1 (CS1) and Culture System 2 (CS2) throughout this work. CS1 expansion media is StemSpan SFEM (StemCell Technologies) supplemented with CC100 (StemCell Technologies), 100 U/mL penicillin and 100 μg/mL streptomycin. CC100 is a mix of Flt-3 ligand (FLT3LG), KIT ligand (KITLG), interleukin-3 (IL3), and interleukin-6 (IL6). CS1 differentiation media is StemSpan SFEM supplemented with 1 U/ml erythropoietin (EPO), 5 ng/mL IL3, 20 ng/mL KITLG, 2 μM dexamethasone, 1 μM beta-estradiol, 100 U/mL penicillin and 100 μg/mL streptomycin. CS2 expansion media is StemSpan SFEM supplemented with 1% glutamine, 40 μg/mL lipids (Sigma), 100 ng/mL KITLG, 10 ng/mL IL3, and 0.5 U/mL EPO. CS2 differentiation media is same as CS2 expansion media, except 3 U/mL EPO.\nFlow cytometry was performed on a FC500 flow cytometer ([…]). Fetal hemoglobin protein was assayed using the Fetal Hemoglobin Test Kit (Life Technologies) according to manufacturer’s protocol. Samples were stained with FITC-conjugated mouse IgG1 anti-human HbF antibody (clone HbF-1, Life Technologies). Each sample was also stained with a FITC-conjugated mouse IgG1 isotype control antibody (clone X40, BD Biosciences) and used as a negative control. FETALtrol cells were used as positive controls (Trillium Diagnostics). TFRC and GYPA were detected on fresh cells by staining with 20 μL of PE-conjugated anti-human TFRC (clone M-A712, catalog 555537, BD Biosciences) and 0.5 μL of FITC- or APC-conjugated anti-human GYPA (clone GA-R2 (HIR2), catalog 559943 or 551336, BD Biosciences) in 200 μL PBS with 0.1% BSA for 40 min on ice. Forward and side scatter, or staining with 7AAD (catalog 559925, BD Biosciences), was used to identify viable cells.\nTo determine if the HBG mRNA induction observed in the presence of ACY-957 was associated with an increase in the HbF protein, CS1 and CS2 cells at day 5 were stained with a fluorescently conjugated anti-HbF antibody and evaluated by flow cytometry. HbF positive cells were increased by 2 to 3-fold upon treatment with ACY-957, which exceeded the response observed with hydroxyurea (Fig 2B and 2E)."}}, "data": [{"smiles": "Nc1ccc(-c2cccs2)cc1NC(=O)c1ccc2nc(N3CCNCC3)ccc2c1", "note": "[ACY-957]", "values": [{"measurement": "GATA2 binding at control region within the HBB gene", "setting": "[1]", "value": "unaffected"}, {"measurement": "increase in GATA2 binding at the HBD promoter", "setting": "[1]", "value": 2, "unit": "fold"}, {"measurement": "HbF positive cells", "setting": "[2]; CS1, day 5", "value": 36, "unit": "%"}, {"measurement": "MFI of HbF positive cells", "setting": "[2]; CS1, day 5", "value": 36}, {"measurement": "increase of HbF positive cells", "setting": "[2]; CS1 and CS2, day 5, 1 μM", "value": "2 to 3", "unit": "fold"}, {"measurement": "increase of mean fluorescent intensity (MFI) of HbF positive cells", "setting": "[2]; CS1 and CS2, day 5, 1 μM", "value": "up to 2 fold"}, {"measurement": "HbF positive cells", "setting": "[2]; CS2, day 5", "value": 50, "unit": "%"}, {"measurement": "MFI of HbF positive cells", "setting": "[2]; CS2, day 5", "value": 20}]}]}
